Data taken from publication PMC10498722 (Chemical Science, 2023).

What was measured:
[1] = molecular target: T1, glutathione peroxidase 4 (GPX4) (Homo sapiens, UniProt P36969); assay: GPX4 assay kit; type: biochemical; conditions: read-out: % enhancement at 100 μM
T1 sequence (P36969 28-197): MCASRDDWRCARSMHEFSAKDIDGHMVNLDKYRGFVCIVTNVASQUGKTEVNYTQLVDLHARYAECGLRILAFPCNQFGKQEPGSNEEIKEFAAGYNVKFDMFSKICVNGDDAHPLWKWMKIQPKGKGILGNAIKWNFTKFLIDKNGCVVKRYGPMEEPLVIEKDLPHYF

[2] = molecular target: T1, glutathione peroxidase 4 (GPX4); assay: GPX4 inhibitor screening assay kit; type: biochemical

Row | activation at 100 µM [1] [%] | IC50 [2] [µM] | SMILES
1 | 19 | – | O=C(OC[C@H]1O[C@@H](OC(=O)c2cc(O)c(O)c(OC(=O)c3cc(O)c(O)c(O)c3)c2)[C@H](OC(=O)c2cc(O)c(O)c(OC(=O)c3cc(O)c(O)c(O)c3)c2)[C@@H](OC(=O)c2cc(O)c(O)c(OC(=O)c3cc(O)c(O)c(O)c3)c2)[C@@H]1OC(=O)c1cc(O)c(O)c(OC(=O)c2cc(O)c(O)c(O)c2)c1)c1cc(O)c(O)c(OC(=O)c2cc(O)c(O)c(O)c2)c1 [TA, tannic acid]
2 | – | 17.17 ± 0.17 | COC(=O)c1ccc([C@H]2c3[nH]c4ccccc4c3C[C@H](C(=O)OC)N2C(=O)CCl)cc1 [RSL3]
